Test results taken from article PMC8330757, “Design and characterisation of piperazine-benzofuran integrated dinitrobenzenesulfonamide as Mycobacterium tuberculosis H37Rv strain inhibitors” (Journal of Enzyme Inhibition and Medicinal Chemistry, 2021).
Values after ≈ are worked out from the molar mass of the structure shown. Read-outs that look alike come from different tables or passages of the source.

Experiments:
Mtb H37Rv (ATCC27294) = assay: In vitro anti-TB activity (MIC) against Mtb H37Rv; assay type: cell-based, Mycobacterium tuberculosis; settings: for MIC: Mycobacterium tuberculosis, read-out: Anti-TB (MIC)
[1] = In vitro cytotoxicity, MTT assay; assay type: cell-based, human; settings: human, A549 cells, read-out: Human cell lines A549 IC50 approximation
Protocol: (§1) The safety profile of the active hybrids was also accessed by testing in vitro cytotoxicity against human cell-line A549 cells at 50 μg/mL concentration by (4,5-dimethylthiazol-2-yl)-2,5-diphenyltetrazolium bromide (MTT) assay. […]
(§2) completion of starting material and formation of polar spot. The reaction mixture was concentrated to dry to give 7a-7d, used directly in next step.
(§3) 1.2. In-vitro Mtb MABA assay
(§4) Briefly, the inoculum was prepared from fresh LJ medium re -suspended in 7H9-S medium (7H9 broth, 0.1% casitone, 0.5% glycerol, supplemented oleic acid, albumin, dextrose, and catalase [OADC]), adjuste d to an OD590 1.0, and diluted 1:20; 100 µl was used as inoculum. Each drug stock solution was thawed and diluted in 7H9 -S at four-fold the final highest concentration tested. Serial two-fold dilutions of each drug were prepared directly in a sterile 96 -well microtiter plate using 100 µl 7H9 -S. A growth control containing no antibiotic and a sterile control were also prepared on each plate. Sterile water was added to all perimeter wells to avoid evaporation during the incubation. The plate was covered, seal ed in plastic bags and incubated at 37 °C in normal atmosphere. After 7 days incubation, 30 µl of Alamar blue solution was added to each well, and the plate was re -incubated overnight. A change in colour from blue (oxidised state) to pink (reduced) indicat ed the growth of bacteria, and the MIC was defined as the lowest concentration of drug that prevented this change in colour. […]
(§5) the concentration of […]. After 72 h of exposure, viability was assessed on the basis of cellular conversion of MTT into a formazan product using the Promega Cell Titer 96 non - radioactive cell proliferation assay.
(§6) 1.4. DPPH radical scavenging activity
(§7) The hydrogen atom or electron donation ability of some compounds were measured from the bleaching of the purple colored methanol solution of […] (DPPH). The spectrophotometric assay uses the stable radical DPPH as a reagent. 1 mL of various concentrations of the test compounds (5, 10, 25, 50 and 100 μg/mL) in methanol was added to 4 mL of 0.004% (w/v) methanol solution of DPPH. The reaction mixture was incubated at 37 °C.
(§8) The scavenging activity on DPPH was determined by measuring the absorbance at 517 nm after 30 min. All tests were performed in triplicate and the mean values were entered. The percent of inhibition (I %) of free radical production from DPPH was calculated by the following equation % of scavenging = [(A control – A sample)/ […]]. Where, A control is the […]

[2] = test system: human cell-line A549 cells; assay: In vitro cytotoxicity, MTT assay; assay type: cell-based; settings: 50 μg/mL, 72 h exposure
Protocol: as §1, §2, §3, §4, §5, §6, §7, §8

[3] = DPPH radical scavenging assay; settings: absorbance at 517 nm after 30 min
Protocol: In TB, oxidative stress may result in tissue inflammation due to anti-TB drugs. The synthesised compounds have shown promising anti-TB activity and have the potential to develop as lead compounds. Therefore, it is necessary to evaluate the synthesised compounds for their antioxidant activity. Antioxidant activities of the synthesised compounds were measured using 2,2-diphenyl-1-picrylhydrazyl (DPPH) radical scavenging assay. DPPH radical scavenging activity is the most commonly used method for screening the antioxidant activities of the various natural as well as synthetic antioxidants. A lower IC50 value indicates greater antioxidant activity. […]
as §2, §3, §4, §5, §6, §7, §8

[4] = Mtb H37Rv, most active compounds tested in triplicates

Row | SMILES | MIC (Mtb H37Rv (ATCC27294)) | IC50 at 72 h [1] | % Cell inhibition at 50 μg/mL [2] | DPPH IC50 [3] | Anti-TB (MIC) (Mtb H37Rv (ATCC27294); [4]) | MIC (Mtb H37Rv (ATCC27294); [4])
1 | NC(=O)c1cc2cc(N3CCN(S(=O)(=O)c4ccc([N+](=O)[O-])cc4[N+](=O)[O-])CC3)ccc2o1 [Compound 4m, 5-(4-((2,4-dinitrophenyl)sulphonyl)piperazin-1-yl)benzofuran-2-carboxamide] | 25 µg/mL (≈ 52.6 µM) | > 50 µg/mL | 23.65% | 45.44 µg/mL |  | 
2 | CCOC(=O)c1cc2cc(N3CCN(S(=O)(=O)c4ccc([N+](=O)[O-])cc4[N+](=O)[O-])CC3)ccc2o1 [Compound 4a, ethyl 5-(4-(2,4-dintrobenzenesulfonyl)piperazin-1-yl)benzofuran-2-carboxylate] | 0.78 ± 0.36 µg/mL (≈ 1.55 µM) | > 50 µg/mL | 20.80% | 15.25 µg/mL | 0.78 µg/mL | 
3 | O=C(c1cc2cc(N3CCN(S(=O)(=O)c4ccc([N+](=O)[O-])cc4[N+](=O)[O-])CC3)ccc2o1)N1CCCCC1 [Compound 4o, (5-(4-((2,4-dinitrophenyl)sulphonyl)piperazin-1-yl)benzofuran-2-yl) (piperidin-1-yl)methanone] | 1.56 ± 0.36 µg/mL (≈ 2.87 µM) | > 50 µg/mL | 31.58% | 19.27 µg/mL | 1.56 µg/mL | 
4 | CO[C@H]1/C=C/O[C@@]2(C)Oc3c(C)c(O)c4c(O)c(c(/C=N/N5CCN(C)CC5)c(O)c4c3C2=O)NC(=O)/C(C)=C\C=C\[C@H](C)[C@H](O)[C@@H](C)[C@@H](O)[C@@H](C)[C@H](OC(C)=O)[C@@H]1C [Rifampicin, reference compound] |  |  |  |  | 0.1 µg/mL | 0.1 ± 0.04 µg/mL (≈ 0.122 µM)
5 | CC[C@@H](CO)NCCN[C@@H](CC)CO [Ethambutol, reference compound] |  |  |  |  | 1.56 µg/mL | 1.56 ± 0.76 µg/mL (≈ 7.64 µM)
6 | CCOC(=O)c1cc2cc(N3CCN(C(=O)C4CCN(S(=O)(=O)c5ccc([N+](=O)[O-])cc5[N+](=O)[O-])C4)CC3)ccc2o1 (stereo not drawn) [Compound 4i, ethyl 5-(4-(1-((2,4-dinitrophenyl)sulphonyl)pyrrolidine-3-carbonyl)piperazin-1-yl)benzofuran-2-carboxylate] | 6.25 µg/mL (≈ 10.4 µM) | > 50 µg/mL | 19.38% | 52.44 µg/mL |  | 
7 | CCOC(=O)c1cc2cc(N3CCN(C(=O)C4CCCN(S(=O)(=O)c5ccc([N+](=O)[O-])cc5[N+](=O)[O-])C4)CC3)ccc2o1 (stereo not drawn) [Compound 4f, ethyl 5-(4-(1-((2,4-dinitrophenyl)sulphonyl)piperidine-3-carbonyl)piperazin-1-yl)benzofuran-2-carboxylate] | 1.56 ± 0.73 µg/mL (≈ 2.53 µM) | > 50 µg/mL | 22.75% | 39.01 µg/mL |  | 
8 | O=C(Nc1ccccc1)c1cc2cc(N3CCN(S(=O)(=O)c4ccc([N+](=O)[O-])cc4[N+](=O)[O-])CC3)ccc2o1 [Compound 4n, 5-(4-((2,4-dinitrophenyl)sulphonyl)piperazin-1-yl)-N-phenylbenzofuran-2-carboxamide] | 3.12 ± 1.1 µg/mL (≈ 5.66 µM) | > 50 µg/mL | 27.98% | 40.64 µg/mL |  | 
9 | NNC(=O)c1ccncc1 [Isoniazid, reference compound] |  |  |  |  | 0.05 µg/mL | 0.05 ± 0.02 µg/mL (≈ 0.365 µM)
10 | CCOC(=O)c1cc2cc(N3CCN(C(=O)C(C)(C)NS(=O)(=O)c4ccc([N+](=O)[O-])cc4[N+](=O)[O-])CC3)ccc2o1 [Compound 4j, ethyl 5-(4-(2-(2,4-dinitrophenylsulfonamido)-2-methylpropanoyl)piperazin-1-yl)benzofuran-2-carboxylate] | 0.78 ± 0.48 µg/mL (≈ 1.32 µM) | > 50 µg/mL | 39.28% | 20.43 µg/mL | 0.78 µg/mL | 
11 | CCOC(=O)c1cc2cc(N3CCN(C(=O)C(NS(=O)(=O)c4ccc([N+](=O)[O-])cc4[N+](=O)[O-])c4ccccc4)CC3)ccc2o1 (stereo not drawn) [Compound 4k, ethyl 5-(4-(2-(2,4-dinitrophenylsulfonamido)-2-phenylacetyl)piperazin-1-yl) benzofuran-2-carboxylate] | > 25 µg/mL | > 50 µg/mL | 22.55% | 45.87 µg/mL |  | 
12 | CCOC(=O)c1cc2cc(N3CCN(C(=O)CCCNS(=O)(=O)c4ccc([N+](=O)[O-])cc4[N+](=O)[O-])CC3)ccc2o1 [Compound 4d, ethyl 5-(4-(4-(2,4-dinitrophenylsulfonamido)butanoyl)piperazin-1-yl) benzofuran-2-carboxylate] | 1.56 ± 0.36 µg/mL (≈ 2.65 µM) | > 50 µg/mL | 35.95% | 33.50 µg/mL |  | 
13 | O=C1O[C@H]([C@@H](O)CO)C(O)=C1O [Ascorbic acid, reference compound] |  |  |  | 12.7 µg/mL |  | 
14 | CCOC(=O)c1cc2cc(N3CCN(C(=O)[C@H]4CCCN4S(=O)(=O)c4ccc([N+](=O)[O-])cc4[N+](=O)[O-])CC3)ccc2o1 [Compound 4h, (R)-ethyl 5-(4-(1-((2,4-dinitrophenyl)sulphonyl)pyrrolidine-2-carbonyl)piperazin-1-yl)benzofuran-2-carboxylate] | > 25 µg/mL | > 50 µg/mL | 33.08% | 49.75 µg/mL |  | 
15 | CN1CCN(C(=O)c2cc3cc(N4CCN(S(=O)(=O)c5ccc([N+](=O)[O-])cc5[N+](=O)[O-])CC4)ccc3o2)CC1 [Compound 4p, (5-(4-((2,4-dinitrophenyl)sulphonyl)piperazin-1-yl)benzofuran-2-yl)(4-methylpiperazin-1-yl) methanone] | 6.25 µg/mL (≈ 11.2 µM) | > 50 µg/mL | 30.18% | 48.66 µg/mL |  | 
16 | CCOC(=O)c1cc2cc(N3CCN(C(=O)CNS(=O)(=O)c4ccc([N+](=O)[O-])cc4[N+](=O)[O-])CC3)ccc2o1 [Compound 4b, ethyl 5-(4-(2-(2,4-dinitrophenylsulfonamido)acetyl)piperazin-1-yl)benzofuran-2-carboxylate] | 3.12 ± 1.47 µg/mL (≈ 5.56 µM) | > 50 µg/mL | 37.41% | 50.33 µg/mL |  | 
17 | CCOC(=O)c1cc2cc(N3CCN(C(=O)[C@@H]4CCCN4S(=O)(=O)c4ccc([N+](=O)[O-])cc4[N+](=O)[O-])CC3)ccc2o1 [Compound 4g, (S)-ethyl 5-(4-(1-((2,4-dinitrophenyl)sulphonyl)pyrrolidine-2-carbonyl)piperazin-1-yl)benzofuran-2-carboxylate] | 6.25 µg/mL (≈ 10.4 µM) | > 50 µg/mL | 29.64% | 55.25 µg/mL |  | 
18 | CCOC(=O)c1cc2cc(N3CCN(C(=O)C4CCN(S(=O)(=O)c5ccc([N+](=O)[O-])cc5[N+](=O)[O-])CC4)CC3)ccc2o1 [Compound 4e, ethyl 5-(4-(1-((2,4-dinitrophenyl)sulphonyl)piperidine-4-carbonyl)piperazin-1-yl)benzofuran-2-carboxylate] | 1.56 ± 0.97 µg/mL (≈ 2.53 µM) | > 50 µg/mL | 18.95% | 45.21 µg/mL |  | 
